Assay [1] concerns 5-FU induced toxicity (ileum tissue damage). The assay can be described thus: Effects of Compound A against 5-FU induced toxicity: histopathological tissue damage score of ileum. Type of assay: in vivo. To be noted: for Total score (tissue damage): 5-FU 50 mg/kg i.p. Day 1 to 4, ileum H&E on Day 7. As for the experimental part: After 1 week of acclimatization period, the experiment started (Day 0). Compound A ((−)-7-{(2R,4aR,5R,7aR)-2-[(3S)-1,1-difluoro-3-methylpentyl]-2-hydroxy-6-oxooctahydrocyclopenta[b]pyran-5-yl}heptanoic acid) (3, 10, 30 μg/kg) or vehicle was administered orally once daily for 5 days from Day 0 to 4 (Schedule 1). In other dosing schedule group, Compound A (30 μg/kg) was administered orally once daily from Day 4 to Day 6 (Schedule 2). 5-FU (50 mg/kg) was administered intraperitoneally once daily for 4 days from Day 1 to 4. On Day 1, 2, 3, and 4,5-FU was administered immediately after administration of Compound A or vehicle. During the experiment period (Day 0-7), animals were weighed every day. On Day 7, the animals were anesthetized by isofluran. Ileum was excised and fixed in 10% formalin. Paraffin-embedded sections were prepared and stained with H&E for histopathological evaluation of tissue damage. The tissue damage was graded according to the following criteria: • 0. No change, • 1: slight, • 2: mild, • 3: moderate, • 4: severe The effect of each compound was evaluated using total score of tissue damage.

The test system of assay [2] is stomatitis aggravated by 5-FU (cheek pouch mucosa). The assay can be described thus: Effects of Compound A on stomatitis: 5-FU plus cheek pouch scratching, hamster. Type of assay: in vivo, Golden Syrian hamsters. As to the method:
Male Golden Syrian hamsters (5 weeks old) were used. After 1 week acclimatization period, the hamsters were administered intraperitoneally with 60 mg/kg 5-fluorouracil (5-FU) (Day 1). 5-FU administration was repeated again on Day 2. On Day 4, the cheek pouch mucosa of the hamsters is mechanically irritated under anesthesia by superficial scratching with the tip of an 18-gauge needle to produce transient erythema. On Day 8 and 10, the same scratching procedure was conducted and 5-FU administration was done. The Compound A at the doses of 24 μg/site or vehicle was topically applied to the cheek pouches from Day 1 to Day 14. During the treatment, the cheek pouch mucosa was macroscopically observed and the buccal lesion was scored according to the following criteria (stomatitis score): • 0: Normal mucosa • 1: Erythema was observed • 2: Severe erythema was observed • 3: Severe erythema and formation of ulcers in one or more places were observed. Cumulative size of the ulcers involves ˜25% of the pouch mucosa. Pseudomembrane formation was evident. • 4: Severe erythema and formation of ulcers were observed. Cumulative size of the ulcers involved about half of the pouch mucosa. Loss of mucosal pliability. • 5: diffuse, extensive ulceration. Loss of mucosal pliability. […] Severity of stomatitis was evaluated using the mean of scores per treatment group.

In the case of `CC[C@H](C)CC(F)(F)[C@@]1(O)CC[C@H]2[C@@H](CC(=O)[C@@H]2CCCCCCC(=O)O)O1` [Compound A, (−)-7-{(2R,4aR,5R,7aR)-2-[(3S)-1,1-difluoro-3-methylpentyl]-2-hydroxy-6-oxooctahydrocyclopenta[b]pyran-5-yl}heptanoic acid], the “Total score (tissue damage)” value is 10.0 in assay [1] (Compound A 3 μg/kg orally once daily, Schedule 1 (Day 0 to 4)); 5.0 in assay [1] (Compound A 10 μg/kg orally once daily, Schedule 1 (Day 0 to 4)); 5.7 in assay [1] (Compound A 30 μg/kg orally once daily, Schedule 1 (Day 0 to 4)); 4.3 in assay [1] (Compound A 30 μg/kg orally once daily, Schedule 2 (Day 4 to Day 6)). Moreover, in assay [1] (at 10 or 30 μg/kg regardless of the dosing schedule), the “Effect on total score of tissue damage (in words)” value is “decreased total scores”. Further, the “Effect on stomatitis compared to vehicle control group (in words)” value in assay [2] (24 μg/site topical, stomatitis aggravated by 5-FU treatment) is “improved stomatitis”. In addition, the “stomatitis score on Day 14 (Mean ± SE)” value in assay [2] (24 μg/site topically to cheek pouches Day 1 to Day 14, 5-FU treatment yes, score 0-5, p < 0.05 vs. vehicle control) is 0.25 ± 0.25.

The values above are taken from patent US9084815B2, “Method for treating damage induced by an anti-tumor agent, treating mucositis and treating tumor” (SUCAMPO AG, priority 2009, dated 2015).
